The data set is described as follows: speciation / hydrolytic stability of POTs at pH 6.8 by 183W NMR. It counts as physicochemical. To be noted: 183W NMR (and 31P, 27Al NMR), ca. 20 mM in 50 mM Na-citrate pH 6.8. An excerpt: ^183W NMR spectroscopy is the most widely applied and reliable technique for the structural characterization of POTs in solution as well as to monitor the progress of reaction. Hundreds of POM ^183W NMR spectra have been reported since the first ^183W NMR spectrum for [SiW11]^8− observed by Acerete et al. in[47]. The here-presented ^183W NMR analysis yielded a single signal for all intact [XW12]^n− structures (Figs 4A,D and S11–S14), reflecting the perfect tetrahedral symmetry of the Keggin α-isomer and clearly confirming the isomeric purity of the prepared POTs.
^183W NMR samples for all the POM compounds were prepared in high concentrations similar to the stock solutions used for kinetic experiments (usually about 20 mM) in 50 mM Na-citrate pH 6.8 if not stated otherwise. ^183W NMR spectra were recorded with a Bruker FT-NMR spectrometer Avance Neo 500 MHz in 10 mm tubes for a total experiment time of ca. 60 hours, using standard pulse programs at 20.836 MHz and a 63° flip angle with 1 s of relaxation delay; the temperature was kept at 25 °C. Chemical shifts were measured relative to external 1 M Na2WO4. For [PW12]^3−, [PW11]^7− and […], additional ^31P NMR spectra were taken, structures of [AlW12]^5−, [AlW11]^9− and [BeW12]^6− were confirmed by ^27Al NMR or ^9Be NMR spectroscopy, respectively. ^27Al, ^9Be and ^31P NMR spectra were recorded at 130.368, 70.273 and 202.53 MHz, respectively. Chemical shifts are given relative to Al(NO3)3, BeSO4 or 85% H3PO4.
In the ^183W NMR spectrum of [PW12]^3− at pH 6.8 (see Fig. 4E), the six most intense peaks can be assigned to six different symmetry-equivalent positions in [PW11]^7−[47],[49]. The less intense signals in the ^183W NMR spectrum can be attributed to other [PW12]^3− hydrolysis products[51] that have been identified in the ^31P NMR spectrum (Fig. S7B). […] Based on both spectra, it can be concluded that [PW11]^7− prevails in aqueous solution at pH 6.8. […] Assignment is complicated by the special pseudo-paramagnetic character of this cluster (see ^183W NMR analysis in Fig. S15, SI section 2.2.2.4).
In order to identify the tungstate species responsible for the inhibitory effect observed with the orthotungstate solution [WO4]^2−, ^183W NMR was performed in reaction buffer pH 6.8, which had to be readjusted by a few drops of 5 M HCl to compensate for the marked basicity of [WO4]^2−. […] The chemical shifts are in agreement with literature data[56]. […] The ^183W NMR spectra for the POT clusters with higher negative charges (see Figs S11–S14) show only one single signal, thereby confirming full structural integrity of the corresponding Keggin anions at pH 6.8. The lacunary cluster [AlW11]^9− evoked a rise in pH up to 8.5 upon dissolution in reaction buffer (pH 6.8) to reach a final concentration of 20 mM. […] In the [BeW12]^6− spectrum (Fig. S14), three additional signals at −147.6, −155.3 and −168.6 ppm can be seen, which were assigned to the β-Keggin isomer. The C3v symmetry of this isomer results in three shifts with intensity ratio 1:2:1, as previously observed for other β-isomers of Keggin structure. The β-isomer is commonly formed during any synthesis of Keggin clusters, but rearranged to the α-form during prolonged thermal reaction. Thus, the occurrence of the β-form in the present preparation can be ascribed to the reduced reaction time applied for the hydrothermal synthesis. […] The ^31P (cf. Fig. S8) and ^183W NMR (Fig. S15) spectra of [PW11Ni]^5− have a special character originating from the peculiar electronic configuration of Ni^2+ and were in general accordance with reference data[61]. In the presented ^183W NMR spectrum, signals from those W atoms in direct neighbourhood to the Ni^2+ center cannot be observed, which complicates unambiguous assignment to the desired substituted POT structure. However, the obtained results can be explained in the light of electronic effects. […]

For `[Na+].[Na+].[O]=[W](=[O])([O-])[O-]` [[WO4]^2−, Na2WO4, reference compound], the “structural integrity / hydrolysis at pH 6.8” value was “no detectable residual free orthotungstate”.

Turning to K4[SiW12O40] [[SiW12]^4−], the “structural integrity / hydrolysis at pH 6.8” value is reported as “partial hydrolysis”.

Source of the values: PMC6435698, “Keggin-type polyoxotungstates as mushroom tyrosinase inhibitors - A speciation study” (Scientific Reports, 2019).
